Source: patent US20230116703A1, “NOVEL ERGOLINES AND METHODS OF TREATING MOOD DISORDERS” (priority 2021, published 2023)
Where two headings read alike, the source gives them in different places.

Key:
5-HT1A receptor = molecular target: T1, 5-HT1A receptor (Homo sapiens, UniProt P08908); assay: cell-based; settings: Ca^2+ flux, agonist; read-out: 5-HT1A EC50
T1 construct: host or cells: CHO cells
T1 sequence (P08908 1-422): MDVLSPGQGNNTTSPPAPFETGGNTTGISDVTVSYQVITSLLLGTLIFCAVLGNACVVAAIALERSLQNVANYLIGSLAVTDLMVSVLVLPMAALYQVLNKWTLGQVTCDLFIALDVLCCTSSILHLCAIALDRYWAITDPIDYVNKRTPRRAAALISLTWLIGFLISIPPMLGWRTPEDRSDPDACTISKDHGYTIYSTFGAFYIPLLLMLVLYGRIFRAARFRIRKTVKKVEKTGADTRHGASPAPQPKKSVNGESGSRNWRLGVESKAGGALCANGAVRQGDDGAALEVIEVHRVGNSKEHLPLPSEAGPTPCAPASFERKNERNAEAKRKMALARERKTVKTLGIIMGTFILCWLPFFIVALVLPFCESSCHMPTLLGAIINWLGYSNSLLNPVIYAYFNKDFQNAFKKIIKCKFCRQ

5-HT2B receptor = molecular target: T2, 5-HT2B receptor (Homo sapiens, UniProt P41595); assay: cell-based; settings: Ca^2+ flux, agonist; for EC50: read-out: 5-HT2B EC50
T2 construct: host or cells: HEK293
T2 sequence (P41595 whole entry): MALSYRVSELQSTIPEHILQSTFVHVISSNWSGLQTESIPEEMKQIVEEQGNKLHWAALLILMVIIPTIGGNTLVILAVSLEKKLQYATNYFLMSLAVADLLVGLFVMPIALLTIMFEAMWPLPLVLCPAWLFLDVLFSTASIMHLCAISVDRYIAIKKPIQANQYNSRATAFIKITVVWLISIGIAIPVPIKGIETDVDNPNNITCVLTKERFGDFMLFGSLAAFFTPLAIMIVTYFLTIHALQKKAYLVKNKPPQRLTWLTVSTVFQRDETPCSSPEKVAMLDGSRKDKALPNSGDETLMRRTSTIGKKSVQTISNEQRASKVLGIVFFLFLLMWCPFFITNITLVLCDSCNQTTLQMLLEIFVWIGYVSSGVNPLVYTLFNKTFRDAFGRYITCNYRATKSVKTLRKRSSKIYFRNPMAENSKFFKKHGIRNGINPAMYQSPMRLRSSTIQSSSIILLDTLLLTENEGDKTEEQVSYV

5-HT1B receptor = 5-HT1B receptor (Homo sapiens, UniProt P28222); assay: cAMP accumulation agonist assay at 5-HT1B; type: cell-based; settings: cAMP, agonist; for EC50: read-out: 5-HT1B EC50
Sequence of 5-HT1B receptor (P28222 whole entry): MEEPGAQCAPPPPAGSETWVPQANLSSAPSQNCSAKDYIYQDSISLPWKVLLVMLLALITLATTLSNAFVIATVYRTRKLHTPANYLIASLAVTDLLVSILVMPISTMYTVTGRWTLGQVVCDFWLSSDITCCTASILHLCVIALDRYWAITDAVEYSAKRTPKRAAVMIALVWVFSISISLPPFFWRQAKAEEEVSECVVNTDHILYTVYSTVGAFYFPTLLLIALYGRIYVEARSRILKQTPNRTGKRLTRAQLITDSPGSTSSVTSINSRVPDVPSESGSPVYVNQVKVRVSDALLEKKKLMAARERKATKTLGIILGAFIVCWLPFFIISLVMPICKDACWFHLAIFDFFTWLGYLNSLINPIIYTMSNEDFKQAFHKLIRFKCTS
Method in brief: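 Agonism was measured by cAMP accumulation in stably transfected cells incubated 60 min at RT. A detection reagent was then added for 60 min at RT before reading, with an 800 nM cAMP standard in blank wells.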

Alpha1A receptor = molecular target: T3, Alpha1A receptor (Homo sapiens, UniProt P35348); assay: FLIPR Ca^2+ flux agonist assay at Alpha1A; type: cell-based
T3 sequence (P35348 1-466): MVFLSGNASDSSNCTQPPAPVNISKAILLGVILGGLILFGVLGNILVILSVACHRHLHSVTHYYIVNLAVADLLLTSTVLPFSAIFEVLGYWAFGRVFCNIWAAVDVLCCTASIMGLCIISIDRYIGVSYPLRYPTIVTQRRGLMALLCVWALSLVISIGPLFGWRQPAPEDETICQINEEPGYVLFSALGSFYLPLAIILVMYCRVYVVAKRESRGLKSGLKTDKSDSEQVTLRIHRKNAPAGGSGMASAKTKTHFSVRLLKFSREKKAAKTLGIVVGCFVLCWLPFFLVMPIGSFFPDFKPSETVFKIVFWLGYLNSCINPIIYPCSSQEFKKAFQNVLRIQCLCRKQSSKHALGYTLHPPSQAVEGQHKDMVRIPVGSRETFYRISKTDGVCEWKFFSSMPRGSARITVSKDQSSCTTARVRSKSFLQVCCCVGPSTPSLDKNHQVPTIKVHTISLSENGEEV
Description: Disclosed compounds were tested for agonist activity at several adrenergic (Alpha1A and Alpha2A) and dopamine (D1 and D2) receptor subtypes using Ca^2+ flux functional assays, with the results summarized in Table 6. Selectivity for the 5-HT2A receptor over these other targets varied depending on the specific target and compound.
Functional Assays at Adrenergic and Dopamine Receptors. Agonist activity at Alpha1A, Alpha2A, D1, and D2 receptors was determined using a FLIPR Ca^2+ flux assay at WuXi AppTec (Hong Kong) Limited according to their standard protocols. Briefly, stably transfected cells expressing the receptor of interest were grown and plated in a 384 well plate and incubated at 37° C. and 5% CO2 overnight. A solution of 250 mM probenecid in 1 mL FLIPR assay buffer was prepared fresh. This was combined with a fluorescent dye (Fluo-4 Direct™) to make a final assay concentration of 2.5 mM. Compounds were diluted 1:3.16 for 10 points and 750 nL was added to a 384 well compound plate using ECHO along with 30 μL assay buffer. The fluorescent dye was then added to the assay plate along with assay buffer to a final volume of 40 μL. The cell plate was incubated for 50 min at 37° C. and 5% CO2 and placed into the FLIPR Tetra along with the compound plate. 10 μL of references and compounds were then transferred from the compound plate into the cell plate and the fluorescent signal was read.

[1] = Metabolic stability in mouse liver microsomes (MLM); type: in vitro ADME; settings: 0.50 mg protein per mL; for t1/2: MLM (CD-1), 1 μM; for microsomal CLint at 1 μM: mouse, pooled mouse liver microsomes, pH 7.4, MLM (CD-1)
Text: MLM Stability Pooled MLM from CD-1 mice (BIOIVT M00501) were used.

[2] = Ca^2+ flux, agonist, read-out: Alpha1A EC50

Row | Compound | EC50 (5-HT1A receptor) | EC50 (5-HT2B receptor) | EC50 (5-HT1B receptor) | EC50 (Alpha1A receptor) | t1/2 [1] | microsomal CLint at 1 μM [1] | 5-HT1B % Act @ Max Dose (5-HT1B receptor) | EC50 (Alpha1A receptor; [2]) | 5-HT2B % Act @ Max Dose (5-HT2B receptor)
1 | CCCN1C[C@H](C(=O)N(CC)CC)C=C2c3cccc4[nH]cc(c34)C[C@H]21 [Compound 1, (6aR,9R)—N,N-diethyl-7-propyl-4,6,6a,7,8,9-hexahydroindolo[4,3-fg]quinoline-9-carboxamide] | 0.0444 µM | 0.104 µM | 0.00382 µM | 0.00882 µM | 2.3 min | 615 µL/min/mg | – | – | –
2 | CCN(CC)C(=O)[C@@H]1C=C2c3cccc4[nH]cc(c34)C[C@H]2N(CCCF)C1 [Compound 2, (6aR,9R)—N,N-diethyl-7-(3-fluoropropyl)-4,6,6a,7,8,9-hexahydroindolo[4,3-fg]quinoline-9-carboxamide] | 0.0254 µM | 0.202 µM | 0.193 µM | 0.237 µM | 2.666 min | 520 µL/min/mg | – | – | –
3 | CCCN1C[C@H](C(=O)N[C@H](C)CC)C=C2c3cccc4[nH]cc(c34)C[C@H]21 [Compound 3, (6aR,9R)—N—((R)-sec-butyl)-7-propyl-4,6,6a,7,8,9-hexahydroindolo[4,3-fg]quinoline-9-carboxamide] | 0.00179 µM | 0.062 µM | 0.0688 µM | 0.0423 µM | 1.6 min | 894 µL/min/mg | – | – | –
4 | CCCN1C[C@H](C(=O)N2[C@@H](C)C[C@@H]2C)C=C2c3cccc4[nH]cc(c34)C[C@H]21 [Compound 4, ((2S,4S)-2,4-dimethylazetidin-1-yl)((6aR,9R)-7-propyl-4,6,6a,7,8,9-hexahydroindolo[4,3-fg]quinolin-9-yl)methanone] | 0.00588 µM | 0.511 µM | 0.0976 µM | 0.116 µM | 0.8 min | 1670 µL/min/mg | 96% | – | –
5 | CCCN1C[C@H](C(=O)NC(CC)CC)C=C2c3cccc4[nH]cc(c34)C[C@H]21 [Compound 6, (6aR,9R)—N-(pentan-3-yl)-7-propyl-4,6,6a,7,8,9-hexahydroindolo[4,3-fg]quinoline-9-carboxamide] | 0.0361 µM | 0.253 µM | 0.201 µM | – | 0.6 min | 2420 µL/min/mg | – | – | –
6 | CCN(CC)C(=O)[C@@H]1C=C2c3cccc4[nH]cc(c34)C[C@H]2N(Cc2ccccc2OC)C1 [Compound 10, (6aR,9R)—N,N-diethyl-7-(2-methoxybenzyl)-4,6,6a,7,8,9-hexahydroindolo[4,3-fg]quinoline-9-carboxamide] | 30.6 µM | > 10 µM | 3.19 µM | – | 1 min | 1400 µL/min/mg | – | > 31.6 µM | –
7 | CCN(CC)C(=O)[C@@H]1C=C2c3cccc4[nH]cc(c34)C[C@H]2N(CCc2ccccc2OC)C1 [Compound 11, (6aR,9R)—N,N-diethyl-7-(2-methoxyphenethyl)-4,6,6a,7,8,9-hexahydroindolo[4,3-fg]quinoline-9-carboxamide] | 29.8 µM | > 10 µM | 0.448 µM | – | 0.917 min | 1510 µL/min/mg | – | > 31.6 µM | 2.5%
